Assay results reported in ChEMBL document CHEMBL1201862, “PubChem BioAssay data set” (2004).
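In this assay, cells in 96-well plates receive the compound at five concentrations for 48 hours. Endpoints are linearly interpolated between the surrounding concentrations. Here, GI50 denotes the concentration required for 50% inhibition of growth.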 Activity calls are given as the source filed them. No stated cut-off is given here; in the data, active = GI50 up to about 1.1 µM and inactive = higher.

What was measured:
Assay in all cases: DTP human tumour cell line panel, 48 h
COLO 205 = test system: COLO 205
NCI-H23 = test system: NCI-H23
SK-MEL-2 = test system: SK-MEL-2
SF-539 = test system: SF-539
OVCAR-8 = test system: OVCAR-8
HOP-62 = test system: HOP-62
SNB-75 = test system: SNB-75
TK-10 = test system: TK-10
SW-620 = test system: SW-620
HL-60 = test system: HL-60
RXF 393 = test system: RXF 393
UACC-257 = test system: UACC-257
IGROV-1 = test system: IGROV-1
NCI-H226 = test system: NCI-H226
A549 = test system: A549
RPMI-8226 = test system: RPMI-8226

SMILES | GI50 (COLO 205) | GI50 (NCI-H23) | GI50 (SK-MEL-2) | GI50 (SF-539) | GI50 (OVCAR-8) | GI50 (HOP-62) | GI50 (SNB-75) | GI50 (TK-10) | GI50 (SW-620) | GI50 (HL-60) | GI50 (RXF 393) | GI50 (UACC-257) | GI50 (IGROV-1) | GI50 (NCI-H226) | GI50 (A549) | GI50 (RPMI-8226)
Cc1cccc2c1c1ccc3c(c1n2C)C(=O)C=CC3=O | 2.39 µM (inactive) | 13.5 µM (inactive) | 15.6 µM (inactive) | 4.56 µM (inactive) | 5.37 µM (inactive) | 19 µM (inactive) | 19.5 µM (inactive) | 2.79 µM (inactive) | 2.03 µM (inactive) | 0.521 µM (active) | 3.48 µM (inactive) | 11.4 µM (inactive) | 18.3 µM (inactive) | 17.3 µM (inactive) | 18.9 µM (inactive) | 2.04 µM (inactive)
Cc1ccc(N2C(=O)/C(=C3\Sc4c(nc(C)n(C)c4=O)N3c3ccccc3)SC2=S)cc1 | > 100 µM (inactive) | > 100 µM (inactive) | > 100 µM (inactive) | 15.3 µM (inactive) | 27.9 µM (inactive) |  | 28.6 µM (inactive) | 32.8 µM (inactive) | > 100 µM (inactive) | > 100 µM (inactive) | 18.7 µM (inactive) | > 100 µM (inactive) | 48 µM (inactive) | 26 µM (inactive) | 49.2 µM (inactive) | > 100 µM (inactive)
COC(=O)C(=O)C(CC(=O)Nc1cc(Cl)ccc1Cl)C(=O)OC (stereo not drawn) | > 100 µM (inactive) | > 100 µM (inactive) | > 100 µM (inactive) | > 100 µM (inactive) | > 100 µM (inactive) | > 100 µM (inactive) | > 100 µM (inactive) | > 100 µM (inactive) | > 100 µM (inactive) | > 100 µM (inactive) | > 100 µM (inactive) | > 100 µM (inactive) | > 100 µM (inactive) | > 100 µM (inactive) | > 100 µM (inactive) | > 100 µM (inactive)
COc1ccc(Cn2c(C)nc3c2C(=O)c2ccccc2C3=O)cc1 | 9.02 µM (inactive) | 7 µM (inactive) | 13.2 µM (inactive) | 3.81 µM (inactive) | 7.01 µM (inactive) | 11.6 µM (inactive) | 11.2 µM (inactive) | 11 µM (inactive) | 8.07 µM (inactive) | 4.17 µM (inactive) | 14 µM (inactive) | 10.4 µM (inactive) | 9.86 µM (inactive) | 14.3 µM (inactive) | 8.61 µM (inactive) | 
COC(=O)C1=C(c2cc(OC)c(OC)c(OC)c2)OC(c2cc(OC)c(OC)c(OC)c2)C1 (stereo not drawn) | 16.4 µM (inactive) | 19.5 µM (inactive) |  | 34.4 µM (inactive) | 32.1 µM (inactive) | 37.8 µM (inactive) | 23.7 µM (inactive) | 25 µM (inactive) | 34.4 µM (inactive) |  | 33.9 µM (inactive) | 23.9 µM (inactive) | 20.1 µM (inactive) | 17.1 µM (inactive) | 36.5 µM (inactive) | 23.1 µM (inactive)
COc1ccc(C2=C(Cl)c3cc(OC)c(OC)cc3C2)cc1OC | > 100 µM (inactive) | > 100 µM (inactive) |  | > 100 µM (inactive) | > 100 µM (inactive) | > 100 µM (inactive) | > 100 µM (inactive) |  | > 100 µM (inactive) | > 100 µM (inactive) | 24.4 µM (inactive) | > 100 µM (inactive) | > 100 µM (inactive) | > 100 µM (inactive) | > 100 µM (inactive) | > 100 µM (inactive)
CC(=O)CC(=O)Nc1ccc(OS(N)(=O)=O)cc1 | > 100 µM (inactive) | > 100 µM (inactive) | > 100 µM (inactive) | > 100 µM (inactive) | > 100 µM (inactive) | > 100 µM (inactive) | > 100 µM (inactive) | > 100 µM (inactive) | > 100 µM (inactive) | > 100 µM (inactive) | > 100 µM (inactive) | > 100 µM (inactive) | > 100 µM (inactive) | > 100 µM (inactive) | > 100 µM (inactive) | > 100 µM (inactive)
COc1ccc2c(c1)[n+]([O-])c(C(=O)CC(=O)C(=O)Nc1cccc(C)c1C)c(C)[n+]2[O-] |  | > 100 µM (inactive) | > 100 µM (inactive) | > 100 µM (inactive) | > 100 µM (inactive) | > 100 µM (inactive) |  | > 100 µM (inactive) | > 100 µM (inactive) | > 100 µM (inactive) | > 100 µM (inactive) | > 100 µM (inactive) | > 100 µM (inactive) | > 100 µM (inactive) | > 100 µM (inactive) | > 100 µM (inactive)
CC(=O)OCc1c2ccccc2c(C)c2c1cc(F)c1ccccc12 | 16.2 µM (inactive) | 23.1 µM (inactive) | 15.2 µM (inactive) | 23.8 µM (inactive) | 18.9 µM (inactive) | 45.6 µM (inactive) | 22.9 µM (inactive) | > 100 µM (inactive) | 20.5 µM (inactive) | 23 µM (inactive) | 25.6 µM (inactive) | > 100 µM (inactive) | 22.5 µM (inactive) | 25.9 µM (inactive) | 32.4 µM (inactive) | 
CC(=O)N1CCN(c2ccc(OCC3COC(Cn4ccnc4)(c4ccc(Cl)cc4Cl)O3)cc2)CC1 (stereo not drawn) [KETOCONAZOLE] | 20.1 µM (inactive) |  | 17.4 µM (inactive) |  | 26.7 µM (inactive) | 39.4 µM (inactive) |  | 37.8 µM (inactive) | 48 µM (inactive) | 20.1 µM (inactive) | 22.2 µM (inactive) | 20.7 µM (inactive) | 38.7 µM (inactive) | 18.7 µM (inactive) | 27.3 µM (inactive) | 35.9 µM (inactive)
O=C1OC(Cc2ccccc2)(N2CCCC2=O)C1c1ccccc1 (stereo not drawn) | > 100 µM (inactive) | 70.5 µM (inactive) | > 100 µM (inactive) |  | > 100 µM (inactive) | > 100 µM (inactive) | 30.8 µM (inactive) | > 100 µM (inactive) | 65.5 µM (inactive) | 43 µM (inactive) |  | > 100 µM (inactive) |  | > 100 µM (inactive) | 95.7 µM (inactive) | 59.4 µM (inactive)
CC1(C)C=C(N2CCN(C3=CC(C)(C)NC(C)(C)C3)CC2)CC(C)(C)N1 |  | > 100 µM (inactive) |  | > 100 µM (inactive) | > 100 µM (inactive) | > 100 µM (inactive) | > 100 µM (inactive) | > 100 µM (inactive) | > 100 µM (inactive) | > 100 µM (inactive) |  | > 100 µM (inactive) | > 100 µM (inactive) |  | > 100 µM (inactive) | > 100 µM (inactive)
CC(=S)NNC(=O)c1ccncc1 | > 100 µM (inactive) | > 100 µM (inactive) | > 100 µM (inactive) | > 100 µM (inactive) | > 100 µM (inactive) | > 100 µM (inactive) | > 100 µM (inactive) | > 100 µM (inactive) | > 100 µM (inactive) | > 100 µM (inactive) | > 100 µM (inactive) | > 100 µM (inactive) | > 100 µM (inactive) | > 100 µM (inactive) | > 100 µM (inactive) | 
C[C@]12CC[C@H](O)CC1=CC[C@@H]1C2CC[C@]2(C)C(=O)NC(=O)CC12 (stereo partly drawn) | 36.8 µM (inactive) | > 100 µM (inactive) | 64.7 µM (inactive) | > 100 µM (inactive) | 45.6 µM (inactive) | > 100 µM (inactive) | > 100 µM (inactive) | > 100 µM (inactive) | 47.8 µM (inactive) | > 100 µM (inactive) | > 100 µM (inactive) | > 100 µM (inactive) | 96.8 µM (inactive) | > 100 µM (inactive) | > 100 µM (inactive) | 23 µM (inactive)
CCOC(=O)/C(=C\c1ccc(OCc2ccccc2)c(OC)c1)C(=O)c1ccccc1 | 30.8 µM (inactive) | 19.3 µM (inactive) | 19.6 µM (inactive) | 16.7 µM (inactive) | > 10 µM (inactive) | 18.9 µM (inactive) |  | 27.5 µM (inactive) | 18.4 µM (inactive) | 20.1 µM (inactive) |  | > 10 µM (inactive) | 29.7 µM (inactive) | 25.7 µM (inactive) | > 10 µM (inactive) | 27.6 µM (inactive)
Cc1ccc(S(=O)OC23CC4CC(CC(C4)C2)C3)cc1 (stereo not drawn) | > 100 µM (inactive) | > 100 µM (inactive) |  | > 100 µM (inactive) | > 100 µM (inactive) | > 100 µM (inactive) | 69.5 µM (inactive) | > 100 µM (inactive) | 84.1 µM (inactive) | 19.4 µM (inactive) | 70.1 µM (inactive) | > 100 µM (inactive) | 29.4 µM (inactive) | > 100 µM (inactive) | > 100 µM (inactive) | 41.4 µM (inactive)
CC(CC[C@@H](C)C1CCC2[C@@H]3CC(O)C4CC(O)[C@@H](O)C[C@]4(C)C3CC[C@@]21C)C(C)(C)C (stereo partly drawn) | > 100 µM (inactive) | > 100 µM (inactive) | > 100 µM (inactive) | > 100 µM (inactive) | > 100 µM (inactive) | > 100 µM (inactive) | > 100 µM (inactive) | > 100 µM (inactive) | > 100 µM (inactive) | > 100 µM (inactive) | > 100 µM (inactive) | > 100 µM (inactive) | > 100 µM (inactive) | > 100 µM (inactive) | > 100 µM (inactive) | > 100 µM (inactive)
[O-][Cl+3]([O-])([O-])O.c1ccc(/N=c2\nc(N3CCOCC3)ss2)cc1 |  | 29.5 µM (inactive) | 17.9 µM (inactive) | 18.3 µM (inactive) | 15 µM (inactive) | 41.3 µM (inactive) | 19.9 µM (inactive) | 46.5 µM (inactive) | 10.2 µM (inactive) | 14.6 µM (inactive) | 17.3 µM (inactive) | 15.8 µM (inactive) | 20.1 µM (inactive) | 61.1 µM (inactive) | 33.4 µM (inactive) | 
